Test results: patent publication US20050053669A1, “Administration form for the oral application of poorly soluble acidic and amphorteric drugs” (Boehringer Ingelheim International GmbH, priority 2003, published 2005)

Legend:
[1] = solubility of the active substance; format: physicochemical
Method: The solubility of a compound may be determined by dispersing an excess of the compound at ambient temperature in the medium in question and shaking it vigorously for a defined length of time (approx. 1 to 24 h) until equilibrium is achieved. After filtration the pH is determined in the clear filtrate and the concentration of the dissolved substance is determined by spectral photometry or some other suitable analytical process.

[2] = phase I study, plasma levels on increasing the dose; format: in vivo, human
From the text: Generally increasing the dose in order to compensate for the reduced bioavailability in patients is frequently undesirable because of the waste of active substance and the greater burden on the patient and the associated risk of side effects, for example, or even totally impossible, on the grounds of drug safety.

SMILES: CCCc1nc2c(C)cc(-c3nc4ccccc4n3C)cc2n1Cc1ccc(-c2ccccc2C(=O)O)cc1 [telmisartan]
- solubility in an acidic medium [1]: readily soluble

SMILES: O=C(O)CCC/C=C(\c1ccc(CCNS(=O)(=O)c2ccc(Cl)cc2)cc1)c1cccnc1 [DT-TX 30]
- plasma levels achieved with 200 mg ([2]; 200 mg compared with 600 mg): equal to those obtained with 600 mg
- higher plasma levels on increasing the dose ([2]; dose increased from 100 to 600 mg): about 50%
